Experimental data as given in patent US20220235006A1, “PYRIDINE DERIVATIVES AS TMEM16A MODULATORS FOR USE IN THE TREATMENT OF RESPIRATORY CONDITIONS” (TMEM16A LIMITED, priority 2019, published 2022).
In brackets after ≈: the same amount, converted by molar mass.

Key:
[1] = molecular target: T1, human TMEM16A (TMEM16Aabc variant) (Homo sapiens, UniProt Q5XXA6, DEL476-501); test: Automated whole-cell patch clamp (Qpatch) TMEM16A potentiator assay in recombinant FRT cells; format: cell-based; details: for activation at 3.33 µM: percentage increase of baseline TMEM16A current, minimum n = 2, read-out: % Potentiation @ 3.33 uM Avg; for EC50: minimum n = 2
T1 sequence (Q5XXA6 with tags, fused parts or gaps isoform Q5XXA6-5 DEL539-564): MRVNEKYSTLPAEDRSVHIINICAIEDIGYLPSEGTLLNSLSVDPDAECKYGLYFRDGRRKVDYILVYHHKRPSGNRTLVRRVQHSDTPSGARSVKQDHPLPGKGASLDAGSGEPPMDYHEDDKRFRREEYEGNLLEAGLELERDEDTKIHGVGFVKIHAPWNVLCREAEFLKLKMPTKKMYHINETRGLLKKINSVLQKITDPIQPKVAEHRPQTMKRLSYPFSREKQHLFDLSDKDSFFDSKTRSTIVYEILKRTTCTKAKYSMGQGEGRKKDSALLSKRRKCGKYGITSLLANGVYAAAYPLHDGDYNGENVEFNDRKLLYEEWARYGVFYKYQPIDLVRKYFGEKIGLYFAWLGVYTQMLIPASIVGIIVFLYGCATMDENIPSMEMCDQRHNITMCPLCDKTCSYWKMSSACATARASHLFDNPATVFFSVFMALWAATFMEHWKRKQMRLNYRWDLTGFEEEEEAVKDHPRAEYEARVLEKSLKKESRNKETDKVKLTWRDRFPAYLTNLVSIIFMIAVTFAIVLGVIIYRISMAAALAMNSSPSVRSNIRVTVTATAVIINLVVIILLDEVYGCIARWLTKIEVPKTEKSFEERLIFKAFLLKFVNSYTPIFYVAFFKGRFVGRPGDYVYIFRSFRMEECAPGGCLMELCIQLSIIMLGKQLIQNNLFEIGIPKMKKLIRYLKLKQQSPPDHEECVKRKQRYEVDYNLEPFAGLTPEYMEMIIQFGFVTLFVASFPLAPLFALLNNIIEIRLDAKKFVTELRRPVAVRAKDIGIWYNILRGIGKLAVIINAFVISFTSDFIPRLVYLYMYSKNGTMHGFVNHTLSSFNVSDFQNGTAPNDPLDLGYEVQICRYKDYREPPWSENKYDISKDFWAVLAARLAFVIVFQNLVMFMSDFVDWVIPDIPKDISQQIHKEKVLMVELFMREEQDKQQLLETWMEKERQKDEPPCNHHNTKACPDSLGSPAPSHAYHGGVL
Method: Automated Whole-Cell Patch Clamp Assay to Detect TMEM16A Activity in Recombinant Cells
Fisher rat thyroid (FRT) cells stably expressing human TMEM16A (TMEM16Aabc variant; Dr Luis Galietta, Insituto Giannina, Italy) were cultured in T-75 flasks in Hams F-12 media with Coon's modification (Sigma) supplemented with 10% (v/v) foetal bovine serum, penicillin-streptomycin (10,000 U/mL/10000 μg/mL), G-418 (750 μg/mL), L-glutamine (2 mM) and sodium bicarbonate solution (7.5% v/v). At ˜90% confluence cells were harvested for experiments by detachment with a 2:1 (v/v) mixture of Detachin (BMS Biotechnology) and 0.25% (w/v) trypsin-EDTA.
FRT-TMEM16A cells were whole-cell patch clamped using an automated planar patch clamp system (Qpatch, Sophion). Briefly, once high resistance (GOhm) seals were established between the cells and the planar recording array the patch was ruptured using suction pulses to establish the whole-cell recording configuration of the patch clamp technique. The assay employed the following solutions (all reagents Sigma): Intracellular solution (mM): N-methyl-D-glucamine 130, CaCl2 18.2, MgCl2 1, HEPES 10, EGTA 10, BAPTA 20, Mg-ATP 2, pH 7.25, 325 mOsm with sucrose.
Extracellular solution (mM): N-methyl-D-glucamine 130, CaCl2 2, MgCl2 1, HEPES 10, pH 7.3, 320 mOsm with sucrose.
The intracellular solution buffers intracellular calcium at levels required to give ˜20% activation of the maximal TMEM16A mediated current (E020 for calcium ions). Cells were voltage clamped at a holding potential of −70mV and a combined voltage step (to +70 mV)/ramp (−90 my to +90 mV) was applied at 0.05 Hz. After a period of current stabilisation test compounds, solubilised in 100% (v/v) DMSO and subsequently diluted into extracellular solution, were applied to generate a cumulative concentration response curve. Each concentration of test compound was incubated for 5 minutes before addition of the next concentration. After the final concentration was tested a supramaximal concentration of either a known active positive modulator or the TMEM16A inhibitor, CaCCinhA01 (Del La Fuente et al, 2008) was added to define the upper and lower limits of the assay.
Compound activity was quantified by measuring the increase in current upon compound addition and expressing this as a percentage increase of baseline TMEM16A current level.
Peak TMEM16A current at +70 mV was plotted as a function of time over the assay period. Baseline current (IBL) was measured after a period of stabilisation. The increase in current for each compound addition was determined by taking the peak current during the incubation period and subtracting the current from the previous recording period and then expressing this as a percentage of the baseline current (% potentiation). For test compound concentration 1 in FIG. 1 this is:
For each additional concentration tested the increase in current was determined by subtracting the current from the previous incubation period and normalising the baseline value—for test concentration 2 in FIG. 1 this is:
The values for each test concentration were plotted as a cumulative function of concentration eg. for test concentration two this would be the sum of the peak changes measured during concentration one plus concentration two.

[2] = Log D (pH7.4 shake flask); format: physicochemical; details: pH 7.4; 1-octanol/phosphate buffer shake flask; read-out: mLogD (pH 7.4)
Method: Phosphate buffer (1 M) was diluted to 20 mM with deionised water and adjusted to pH 7.4 with phosphoric acid or sodium hydroxide. 1-octanol and phosphate buffer (20 mM) were saturated overnight by tumbling. The two phases were separated using a separation funnel. 5 μL of 5 mM compound cassette was added to 495 μL of octanol-saturated buffer and 495 μL buffer saturated octanol in a 96-well plate (top concentration 50 μM). Plate was shaken for 1 h and centrifuged at 25° C. for 5 min. 200 μL of each phase was transferred to a separate plate. The octanol layer was sampled first to avoid cross contamination. 5 μL of the solutions were transferred to 495 μL of quench solution* (max concentration 0.5 μM). In addition, 40 μL of buffer solution was added to 360 μL of quench solvent (max concentration 5 μM). Samples were analysed by LC-MS/MS. Benchmarking against a calibration curve for each compound and with reference to the control compounds sulpride, diclofenac, chlorpromazine and tamoxifen. *Quench solution was a 1:3:1 mixture (v/v/v) of Acetonitrile containing 0.1% formic acid and imipramine/labetalol, 200 nM:Acetonitrile:Water.

[3] = Kinetic solubility determination (high throughput); format: physicochemical; details: kinetic from dmso stock, sterile water, 5% DMSO, room temperature
Method: Test compounds (10 μL; 20 mM DMSO solution) were added to sterile water (190 μL) in triplicate and shaken at 300 rpm at room temperature. After 90 min. the test compounds were filtered by centrifuge (5 min. at 3000 rpm) to obtain the aqueous filtrate. Acetonitrile (20 μL) was dispensed into clean 96-well UV/VIS analysis plate and aqueous filtrate (80 μL) added and the plate analysed for test compound concentration using a Molecular Devices SPECTRAmax® plus microplate reader at the following wavelengths: (280, 300, 320, 340, 360, 800 nm). […] The diluted filtrate (80 μL) was then added to acetonitrile (20 μL) and the plate analysed. as previously.

Compound | activation at 3.33 µM [1] [%] | EC50 [1] [nM] | logD [2] | solubility kinetic at 90 min [3] [µg/mL]
CC1(NC(=O)c2cc(NC(=O)Cc3cc(O)c(C(C)(C)C)cc3F)ccn2)CC1 [Example 1, 4-[[2-(4-tert-Butyl-2-fluoro-5-hydroxy-phenyl)acetyl]amino]-N-(1-methylcyclopropyl)pyridine-2-carboxamide] | 248 | 38 | > 4.2 | –
C#CC(C)(C)NC(=O)c1cc(NC(=O)Cc2cc(O)c(C(C)(C)C)cc2F)ccn1 [Example 1.1] | 118 | 26 | > 4 | 6 (≈ 14.6 µM)
C#CC1(NC(=O)c2cc(NC(=O)Cc3cc(O)c(C(C)(C)C)cc3F)ccn2)CCCC1 [Example 1.2] | 149 | 45 | > 4.5 | 3 (≈ 6.86 µM)
CC(C)(C#N)NC(=O)c1cc(NC(=O)Cc2cc(O)c(C(C)(C)C)cc2F)ccn1 [Example 1.4] | 200 | 37 | > 4.1 | –
CC(C)(C)c1cc(F)c(CC(=O)Nc2ccnc(C(=O)NC3(C#N)CC3)c2)cc1O [Example 1.5] | 148 | 65 | 3.7 | 11 (≈ 26.8 µM)
CC(C)(C)c1cc(F)c(CC(=O)Nc2ccnc(C(=O)NC3(C(F)(F)F)CC3)c2)cc1O [Example 1.7] | 202 | 25 | > 4 | –
CC(C)(C)NC(=O)c1cc(NC(=O)Cc2cc(O)c(C3(C#N)CC3)cc2F)ccn1 [Example 2.4, N-tert-Butyl-4-[[2-[4-(1-cyanocyclopropyl)-2-fluoro-5-hydroxy-phenyl]acetyl]amino]pyridine-2-carboxamide] | 356 | 69 | 3.7 | –
O=C(Cc1cc(O)c(C2(C(F)(F)F)CCO2)cc1F)Nc1ccnc(C(=O)NC2(C(F)(F)F)CC2)c1 (stereo not shown) [Example 2.10, 4-[[2-[2-Fluoro-5-hydroxy-4-[2-(trifluoromethyl)oxetan-2-yl]phenyl]acetyl]amino]-N-[1-(trifluoromethyl)cyclopropyl]pyridine-2-carboxamide] | 434 | 30 | 4.2 | –
CC(C)(C#N)NC(=O)c1cc(NC(=O)Cc2cc(O)c(C3(C(F)(F)F)CCO3)cc2F)ccn1 (stereo not shown) [Example 2.14, N-(1-Cyano-1-methyl-ethyl)-4-[[2-[2-fluoro-5-hydroxy-4-[2-(trifluoromethyl)oxetan-2-yl]phenyl]acetyl]amino]pyridine-2-carboxamide] | 122 | 27 | – | 99 (≈ 206 µM)
CC(C)(C#N)NC(=O)c1cc(NC(=O)Cc2cc(O)c(C(C)(C)C)cc2F)c(F)cn1 [Example 3, 4-[[2-(4-tert-Butyl-2-fluoro-5-hydroxy-phenyl)acetyl]amino]-N-(1-cyano-1-methyl-ethyl)-5-fluoro-pyridine-2-carboxamide] | 353 | 132 | 3.9 | –
CC(C)(C#N)NC(=O)c1cc(NC(=O)Cc2cc(O)c(C(C)(C)C)cc2Cl)ccn1 [Example 10, 4-[[2-(4-tert-Butyl-2-chloro-5-hydroxy-phenyl)acetyl]amino]-N-(1-cyano-1-methyl-ethyl)pyridine-2-carboxamide] | 310 | 52 | > 4 | –
CC(C)(C#N)NC(=O)c1cc(NC(=O)Cc2cc(O)c(C(C)(C)CO)cc2F)ccn1 [Example 16.2, N-(1-Cyano-1-methyl-ethyl)-4-[[2-[2-fluoro-5-hydroxy-4-(2-hydroxy-1,1-dimethyl-ethyl)phenyl]acetyl]amino]pyridine-2-carboxamide] | 295 | 115 | – | –
CC(CO)c1cc(F)c(CC(=O)Nc2ccnc(C(=O)NC3(C)CCOCC3)c2)cc1O (stereo not shown) [Example 16.3, 4-[[2-[2-Fluoro-5-hydroxy-4-(2-hydroxy-1-methyl-ethyl)phenyl]acetyl]amino]-N-(4-methyltetrahydropyran-4-yl)pyridine-2-carboxamide] | 140 | 407 | – | –
CC(C)(O)c1cc(F)c(CC(=O)Nc2ccnc(C(=O)NC3(C(F)(F)F)CC3)c2)c(Cl)c1O [Example 18, 4-[[2-[2-Chloro-6-fluoro-3-hydroxy-4-(1-hydroxy-1-methyl-ethyl)phenyl]acetyl]amino]-N-[1-(trifluoromethyl)cyclopropyl]pyridine-2-carboxamide] | 315 | 268 | – | –
CC(C)(O)c1cc(Cl)c(CC(=O)Nc2ccnc(C(=O)NC3(C(F)(F)F)CC3)c2)cc1O [Example 19, 4-[[2-[2-Chloro-5-hydroxy-4-(1-hydroxy-1-methyl-ethyl)phenyl]acetyl]amino]-N-[1-(trifluoromethyl)cyclopropyl]pyridine-2-carboxamide] | 244 | 46 | – | –
CC(CO)c1cc(F)c(CC(=O)Nc2ccnc(C(=O)NC3(C(F)(F)F)CC3)c2)cc1O (stereo not shown) [Example 20, 4-[[2-[2-Fluoro-5-hydroxy-4-(2-hydroxy-1-methyl-ethyl)phenyl]acetyl]amino]-N-[1-(trifluoromethyl)cyclopropyl]pyridine-2-carboxamide] | 295 | 100 | – | –
